{"source": "patent US9745581B2", "about": "“Methods of treating and diagnosing diseases using agents that regulate the alternative splicing pathway” (Yissum Research Development Company of the Hebrew …, priority 2012, dated 2017)", "key": {"[1]": {"system": "Mnk1/2", "experiment": "Western blot of p38-MAPK phosphorylation in MEFs treated with Mnk1/2 kinase inhibitor", "type": "cell-based, mouse", "settings": "CGP 57380 for 4 h, FIG. 5E", "source_text": "(A) MCF-10A cells were transduced with the indicated retroviruses encoding for Mnk2 isoforms or Mnk2aKD. Total protein from stable pools was extracted and separated on SDS-PAGE and was subjected to Western blot analysis with the indicated antibodies. Numbers represent ratio of p-p38/total p38 normalized to that of pBABE (arbitrarily set at 1)±SD (n=2). (B) MCF-10A cells described in (A) were transduced by H-RAS^V12 and after selection cells were lysed and subjected to Western blot analysis with the indicated antibodies. Numbers representing ratio of p-p38/total p38 were calculated as described in (A) (n=2). (C) Immortal MEFs from Mnk2^−/− mouse were transduced with retrovirus encoding either no mammalian protein (pBABE) or various Mnk2 variants. […] (D) Immortal MEFs from WT, Mnk1^−/− or Mnk2^−/− mice were lysed and analyzed as in (A). (E) Immortal MEFs described in (D) were seeded in 6-well plates. […]\n(A) Cell lines from breast immortal or cancer (MCF-7, MDA-MB-231, SUM-149, SUM-159, MDA-MB-468) cell lines were seeded in 6-well plates and 24 h later were lysed and subjected to Western blot analysis with the indicated antibodies. (B-C) Quantitation of p38 and eIF4E phosphorylation levels. […] (G) MCF-10A cells were seeded in 6-well plates, treated and analyzed as in (D). […]"}, "[2]": {"system": "Mnk1/2", "experiment": "Western blot of p38-MAPK phosphorylation in MCF-10A cells treated with Mnk1/2 kinase inhibitor", "type": "cell-based, human", "settings": "CGP 57380 for 4 h, FIG. 8G", "method": "(A) Cell lines from breast immortal or cancer (MCF-7, MDA-MB-231, SUM-149, SUM-159, MDA-MB-468) cell lines were seeded in 6-well plates and 24 h later were lysed and subjected to Western blot analysis with the indicated antibodies. (B-C) Quantitation of p38 and eIF4E phosphorylation levels. The level of phosphorylated p38 and eIF4E was normalized to that of their total level. Results are presented as an average±SD (n=2). (D-F) Immortal MEFs from WT (Mnk 1/2 WT), Mnk1^−/− or Mnk2^−/− mice were seeded in 6-well plates. 24 h later cells were either treated with the vehicle (DMSO) or treated with the Mnk1/2 kinase inhibitor, CGP 57380 (CGP) at the indicated concentrations for 4 h, and subjected to Western blot analysis with the indicated antibodies. (G) MCF-10A cells were seeded in 6-well plates, treated and analyzed as in (D). […] C-myc (nuclear) and caspase-2 (cytoplasmic) served as fractionation controls."}, "[3]": {"system": "Mnk1/2", "experiment": "Q-RT-PCR of p38α target genes FOS and COX-2 in MCF-10A cells", "type": "cell-based, human", "settings": "serum starved, CGP 57380 for 8-10 h, FIG. 7E", "method": "(C). RNA from WT MEFs, Mnk2^−/− MEFS and Mnk2^−/− MEFS transduced with Mnk2a was extracted and the levels of FOS and COX-2 were analyzed by Q-RT-PCR. (D). RNA from MCF-10A cells transduced with the indicated Mnk2 isoforms and the indicated Mnk2a mutants was extracted and the levels of FOS and COX-2 were measured as described above. (E). MCF-10A cells were seeded in 10 cm plates. 24 h later, cells were serum starved for an additional 24 h, then treated with Mnk1/2 inhibitor CGP 57380 at the indicated concentrations for 8-10 h. RNA from cells was extracted and the levels of p38α-targets genes; FOS and COX-2 were measured by Q-RT-PCR as described above. (F). MCF-10A cells described in (D) were serum starved for 24 h and then treated with 0.5 μM anisomycin for 24 h and were subjected to trypan-blue exclusion assay (Graph). Bottom panel: cells described in (F) were centrifuged and lysed with Laemmli buffer and proteins were subjected to Western blot analysis. […]\nQ-RT-PCR: Total RNA was extracted with Tri reagent (Sigma) and 2 μg of total RNA was reverse transcribed using the AffinityScript (Stratagene) reverse transcriptase. The mRNA levels of FOS, and COX-2 were determined in MCF-10A breast cell lines by performing quantitative PCR with SYBER Green (SYBR® Premix Ex Taq™ # RR041A) using the CFX96 (Bio-Rad) machine. […]"}, "[4]": {"system": "MCF-10A cells", "experiment": "Soft agar colony formation of MCF-10A cells co-transduced with Mnk2a and oncogenic Ras", "type": "cell-based, human", "settings": "H-RAS V12, colonies counted 14 days later, FIGS. 4F-G", "method": "(§1) (C-D). […] (*, **, ***p≦0.01n=3).\nAnchorage-independent growth: Colony formation in soft agar was assayed as described previously (17). Plates were incubated at 37° C. and 5% CO2. After 10-18 days, colonies were counted from ten different fields in each of two wells for each transductant pool and the average number of colonies per well was calculated. The colonies were stained and photographed under a light microscope at 100× magnification."}, "[5]": {"system": "Panc-1 cells", "experiment": "Anisomycin-induced cell death of Panc-1 cells expressing Mnk2a, with or without p38 inhibitor", "type": "cell-based, human", "settings": "Panc-1, 0.5 μM anisomycin, 20 μM SB203580, FIG. 5J", "method": "After selection with hygromycin transductants were maintained in growth factor-free medium in suspension for 48 h. Cell death was measured using the trypan blue exclusion assay. (J) Human pancreatic cancer cells Panc-1 were seeded on 96-well plates (6000 cells/well). Following starvation cells were treated with 0.5 μM anisomycin in the presence or absence of 20 μM SB203580. (*, **p≦0.01). (K) MCF-10A cells were transduced as in (I). After selection cells were seeded in 6-well plates. 24 h later cells were serum starved in a growth factor-free medium for 24 h. Following starvation cells were treated with 0.5 M Sorbitol (to induce osmotic shock) and 24 h later were stained with trypan blue (n=2). (L) MCF-10A transduced with the indicated retroviruses encoding for shRNAs against Mnk2a were seeded as in (K). (*, p≦0.01, ** p≦0.05). […] 10 days post selection with hygromycin cells were assessed for colony formation with methylene blue staining. n=3. […]\nSurvival and apoptosis assays: MCF-10A or Panc-1 cells were transduced with the indicated retroviruses. […] Cells were fixed and stained with methylene blue and the absorbance at 650 nm of the acid-extracted stain was measured on a plate reader (BioRad) and was normalized to cell absorbance at “Time 0”. […] 10 μl of the cell suspension was mixed with 10 μl of 4% trypan blue solution and live/dead cells were counted in Bio-Rad TC-10 Automated Cell Counter. […]"}, "[6]": {"system": "p38", "settings": "MCF-10A, 1 μM anisomycin, 10 μM SB203580, FIG. 4E", "experimental": "(E) MCF-10A cells transduced with retroviruses containing the indicated Mnk2 isoforms or a kinase dead version of Mnk2a (Mnk2aKD) or with isoform specific shRNAs against Mnk2a were treated with 1 μM anisomycin, in the presence or absence of 10 μM SB203580. Cells were lysed and proteins were subjected to Western blot analysis with the indicated antibodies.\nImmunoblotting: Cells were lysed in Laemmli buffer and analyzed for total protein concentration as described previously (17). 30 μg of total protein from each cell lysate was separated by SDS-PAGE and transferred to a nitrocellulose membrane. The membranes were blocked, probed with antibodies and detected using enhanced chemiluminescence. Primary antibodies were anti phospho-eIF4E Ser209 (1:1000), eIF4E (1:1000), phospho-p38 (Thr180/Tyr182) (1:1000), phospho-MNK (T197/T202) (1:1000), phospho-MK2 (1:1,000), MK2 (1:1,000), (Cell Signaling Technology). […] Secondary antibodies were HRP-conjugated goat anti-mouse, goat anti-rabbit or donkey anti-goat IgG (H+L) (1:10,000, Jackson Laboratories)."}, "[7]": {"system": "MCF-10A cells", "experiment": "Cell death induced by constitutively active p38α in MCF-10A cells expressing Mnk2a", "type": "cell-based, human", "settings": "20 μM SB203580 for 48 hours, FIGS. 4A-B", "source_text": "as §1"}, "[8]": {"system": "Ras-transformed MCF-10A breast cells", "experiment": "Colony survival of Ras-transformed MCF-10A cells after PNA incubation", "type": "cell-based, human", "settings": "0.05 μM PNA for 5 hours, seeded 20 cells/well, colonies counted 14 days later, versus scrambled PNA", "method": "(§2) FIGS. 36A-C. […] Ras-transformed MCF-10A cells were incubated for 5 hours with 0.05 μM scrambled (non-specific) PNA or MNK2a specific PNA (see the position of the PNA marked in red in the scheme). 24 h later cells were counted and seeded in low density (20 cells/well) in 6-well plates. 14 days later, surviving colonies were counted and photographed."}, "[9]": {"system": "Mnk2 splicing", "experiment": "RT-PCR of Mnk2 splicing after PNA treatment", "type": "cell-based, human", "settings": "Ras-transformed MCF-10A cells, FIG. 36C", "method": "as §2\nRT-PCR: Total RNA was extracted with Tri reagent (Sigma) and 2 μg of total RNA was reverse transcribed using the AffinityScript (Stratagene) reverse transcriptase. PCR was performed on 1/10 (2 μl) of the cDNA, in 50 μl reactions containing 0.2 mM dNTP mix, 10×PCR buffer with 15 mM MgCl2 (ABI), 2.5 units of TaqGold (ABI) and 0.2 […]; 5% (v/v) DMSO was included in some reactions. PCR conditions were 95° C. for 5 min, then 33 cycles of 94° C. for 30 s, 57° C. for 30 s and 72° C. for 45 s, followed by 10 min at 72° C. PCR products were separated on 1.5% or 2% agarose gels. Primers are listed herein below."}}, "note": "“Also recorded” adds a separate entry of the source."}
{"compound": "Nc1ncnc2n[nH]c(Nc3ccc(F)cc3)c12", "note": "[CGP 57380]", "values": [{"measurement": "p38 phosphorylation in Mnk2-/- MEFs", "setting": "[1]; Mnk2-/- MEFs, FIG. 8D-F", "result": "could not be further reduced"}, {"measurement": "p38-MAPK phosphorylation (T180, Y182) in WT and Mnk1-/- MEFs", "setting": "[1]; WT and Mnk1-/- MEFs", "result": "reduced p38-MAPK phosphorylation"}, {"measurement": "p38-MAPK phosphorylation in MCF-10A cells", "setting": "[2]", "result": "reduced p38-MAPK phosphorylation"}, {"measurement": "expression of p38-MAPK target genes (FOS, COX-2)", "setting": "[3]", "result": "reduced the expression p38-MAPK target genes"}]}
{"compound": "C[S+]([O-])c1ccc(-c2nc(-c3ccncc3)c(-c3ccc(F)cc3)[nH]2)cc1", "note": "(stereo not shown) [SB203580]", "values": [{"measurement": "colony formation in soft agar of cells co-transduced with Mnk2a and Ras", "setting": "[4]", "result": "rescued the ability of cells co-transduced with Mnk2a and Ras to form colonies in soft agar"}, {"measurement": "anisomycin-induced cell death of cells expressing Mnk2a", "setting": "[5]", "result": "partially rescued; also recorded: rescued Panc-1 cells from Mnk2a-induced sensitivity to anisomycin treatment"}, {"measurement": "p38 activity measured by phosphorylation of its substrate MK-2", "setting": "[6]", "result": "efficiently inhibited p38 activity"}, {"measurement": "cell death upon active p38-MAPK transduction in cells expressing Mnk2a", "setting": "[7]", "result": "inhibited by SB203580"}]}
{"compound": "PNA: PNA based molecule hybridizing to the bridging region between exon 14b and the preceding intron, preventing Mnk2b generation; likely SEQ ID NO: 157 (AGACTTCCACCCTGTCAG; PNA modified oligonucleotide, pattern not given here)", "values": [{"measurement": "survival of Ras-transformed MCF-10A breast cells (surviving colonies)", "setting": "[8]", "result": "reduces survival; also recorded: decreased the survival"}, {"measurement": "Mnk2 splicing (Mnk2a level) by RT-PCR", "setting": "[9]", "result": "can modulate Mnk2 splicing to elevate Mnk2a"}]}
